Measured values published in ChEMBL document CHEMBL1201862, “PubChem BioAssay data set” (2004).
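Where inhibition never reached the appropriate level, the endpoint shown equals the highest concentration tested. Otherwise, values were interpolated linearly from a five-concentration, 48-hour dose response in 96-well plates. Abbreviation: GI50, concentration required for 50% inhibition of growth.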 Calls of active or inactive are those of the source. No stated cut-off is given here; in the data, active = GI50 up to about 1.1 µM and inactive = higher.

Key:
Experiment in all cases: inhibition of tumour cell growth, NCI panel, 48 h
IGROV-1 = tested on: IGROV-1
UACC-257 = tested on: UACC-257
CCRF-CEM = tested on: CCRF-CEM
HCT-15 = tested on: HCT-15
Malme-3M = tested on: Malme-3M
KM-20L2 = tested on: KM-20L2
SNB-19 = tested on: SNB-19
SF-295 = tested on: SF-295
SF-268 = tested on: SF-268
SK-MEL-28 = tested on: SK-MEL-28
786-0 = tested on: 786-0
SK-MEL-5 = tested on: SK-MEL-5
HCC 2998 = tested on: HCC 2998
SN12C = tested on: SN12C
OVCAR-3 = tested on: OVCAR-3

Row | SMILES | GI50 (IGROV-1) | GI50 (UACC-257) | GI50 (CCRF-CEM) | GI50 (HCT-15) | GI50 (Malme-3M) | GI50 (KM-20L2) | GI50 (SNB-19) | GI50 (SF-295) | GI50 (SF-268) | GI50 (SK-MEL-28) | GI50 (786-0) | GI50 (SK-MEL-5) | GI50 (HCC 2998) | GI50 (SN12C) | GI50 (OVCAR-3)
1 | COc1cc2c(cc1OC)[C@@H](Nc1ccc(F)cc1)C1COC(=O)[C@@H]1C2c1cc(OC)c(O)c(OC)c1 (some centres undefined) | 21.7 µM (inactive) | 5.53 µM (inactive) | 0.14 µM (active) | 1.67 µM | 3.07 µM (inactive) | 3.04 µM (inactive) | 1 µM (active) | 0.267 µM (active) | 2.1 µM (inactive) | 21.9 µM (inactive) | 0.573 µM (active) | 1.93 µM (inactive) | 2.65 µM (inactive) | 1.56 µM (inactive) | 23.4 µM (inactive)
2 | CC/C(CC(=O)CCC(=O)Nc1c(C)cccc1C)=N\NC(=O)NN | > 100 µM (inactive) | > 100 µM (inactive) | > 100 µM (inactive) | > 100 µM | > 100 µM (inactive) | > 100 µM (inactive) | > 100 µM (inactive) | > 100 µM (inactive) | > 100 µM (inactive) | > 10 µM (inactive) | > 100 µM (inactive) | > 100 µM (inactive) | > 100 µM (inactive) | > 100 µM (inactive) | > 100 µM (inactive)
3 | COc1cccc2nc3cc(C)c(C)cc3nc12 | > 100 µM (inactive) | > 100 µM (inactive) | > 100 µM (inactive) | > 100 µM | > 100 µM (inactive) | > 100 µM (inactive) | > 100 µM (inactive) | > 100 µM (inactive) | > 100 µM (inactive) | > 100 µM (inactive) | > 100 µM (inactive) | 97.5 µM (inactive) | > 100 µM (inactive) | > 100 µM (inactive) | > 100 µM (inactive)
4 | CC1=C2C(=O)C3[C@@H](CCC4=CC(=O)CC[C@@]43C)C2CC[C@]12O[C@@H]1C[C@H](C)CN[C@H]1[C@H]2C (some centres undefined) | > 100 µM (inactive) | 36 µM (inactive) | 15.9 µM (inactive) | 48.8 µM | – | 68.4 µM (inactive) | 44.4 µM (inactive) | 32.8 µM (inactive) | 31.6 µM (inactive) | 97.1 µM (inactive) | 43.4 µM (inactive) | 42.1 µM (inactive) | > 100 µM (inactive) | 36.3 µM (inactive) | 45.8 µM (inactive)
5 | CC1=CC(=O)CCC2(C)C1CC[C@@H]2OC=O (some centres undefined) | > 100 µM (inactive) | > 100 µM (inactive) | > 100 µM (inactive) | – | – | 82.2 µM (inactive) | > 100 µM (inactive) | > 100 µM (inactive) | > 100 µM (inactive) | > 100 µM (inactive) | > 100 µM (inactive) | > 100 µM (inactive) | > 100 µM (inactive) | > 100 µM (inactive) | > 100 µM (inactive)
6 | O=NN(CCCl)C(=O)NCc1ccc[n+]([O-])c1 | > 100 µM (inactive) | > 100 µM (inactive) | 65.8 µM (inactive) | > 100 µM | > 100 µM (inactive) | > 100 µM (inactive) | – | 64.1 µM (inactive) | 37.2 µM (inactive) | > 100 µM (inactive) | 35.7 µM (inactive) | > 100 µM (inactive) | > 100 µM (inactive) | > 100 µM (inactive) | > 100 µM (inactive)
7 | CN(C)C(=O)Nc1c([N+](=O)[O-])cc(C(F)(F)F)cc1[N+](=O)[O-] | > 100 µM (inactive) | 27.8 µM (inactive) | 79.1 µM (inactive) | 37.1 µM | – | 26.5 µM (inactive) | > 100 µM (inactive) | 63.4 µM (inactive) | > 100 µM (inactive) | > 100 µM (inactive) | > 100 µM (inactive) | 17.2 µM (inactive) | – | 45.7 µM (inactive) | 19.5 µM (inactive)
8 | COc1ccc(-c2cc3ccccc3[nH]c2=O)cc1OC | > 100 µM (inactive) | > 100 µM (inactive) | > 100 µM (inactive) | > 100 µM | > 100 µM (inactive) | > 100 µM (inactive) | > 100 µM (inactive) | > 100 µM (inactive) | > 100 µM (inactive) | > 100 µM (inactive) | > 100 µM (inactive) | – | > 100 µM (inactive) | > 100 µM (inactive) | –
9 | COc1ccc([C@H]2[C@@H]3CCc4ccccc4C3=NN2C(N)=S)cc1OC | 69.3 µM (inactive) | 45.5 µM (inactive) | 32.4 µM (inactive) | 40.9 µM | 85.3 µM (inactive) | 57.7 µM (inactive) | 77.3 µM (inactive) | – | 85.9 µM (inactive) | 78 µM (inactive) | 54.2 µM (inactive) | – | > 100 µM (inactive) | > 100 µM (inactive) | 51.4 µM (inactive)
10 | CCC1(Cl)C(=O)NC(=O)N(C2CC(O)C(CO)O2)C1N=[N+]=[N-] (centres undefined) | > 100 µM (inactive) | > 100 µM (inactive) | > 100 µM (inactive) | – | > 100 µM (inactive) | > 100 µM (inactive) | > 100 µM (inactive) | > 100 µM (inactive) | > 100 µM (inactive) | > 100 µM (inactive) | > 100 µM (inactive) | > 100 µM (inactive) | > 100 µM (inactive) | > 100 µM (inactive) | > 100 µM (inactive)
